Measured values: patent US10787448B2, “Indolizino [3,2-C] quinoline-based fluorescent probe” (SEOUL NATIONAL UNIVERSITY R & DB FOUNDATION, priority 2015, dated 2020)
Several values for one entry are separate records, joined by “and”; a condition that tells them apart may be missing. Equal values may be shown once. Where a name gives a salt, the structure may show the parent alone. Blank lines part the entries; values can stand above or below the molecule they belong to.

Assay: Analysis of optical characteristics (absorption, fluorescence emission, quantum yield) in solvents
Format: physicochemical
Conditions: for Fluorescence Emission Intensity / Peak emission wavelength λmax em(nm) / Relative fluorescence Emission Intensitynorm: H2O at 2 μM; for Peak emission wavelength λmax em(nm): excited at the longest absorption maxima; for Relative fluorescence Emission Intensitynorm: normalized fluorescence intensity; for Fluorescence quantum yield (Φ): Rhodamine 6G as a standard (Φ = 0.86 in water)
Protocol: Fluorescence emission spectra were obtained at 20° C. using a JASCO FP-6500 spectrofluorometer, a 10 mM stock solution prepared by dissolving an indolizino[3,2-c]quinoline compound in DMSO was diluted in a solvent. […] Absorption spectra were recorded at room temperature using a Perkin Elmer Lamda 20 UV/VIS spectrometer. […]
Further, the compounds (excluding Entry #51-57, etc.) of Formula 1 were subjected to spectrum analyses in various solvents, and the results are shown in Tables 6 and 7, and FIGS. 5C and 5D.

quantum yield (Φ) (DW, standard Rhodamine 6G): 0.026 | quantum yield (Φ) (EtOH, standard Coumarin 153): 0.492
Compound: COc1ccc(-c2nc3ccccc3c3c(C#N)c4ccccn4c23)cc1 [compound 39]

λex(nm) (Table 6): 422 nm
Compound: Cc1cccn2c1cc1c3ccccc3nc(-c3ccc(Cl)o3)c12 [compound 53]

quantum yield (Φ) (DW, standard Rhodamine 6G): 0.026 | quantum yield (Φ) (EtOH, standard Coumarin 153): 0.756 | Fluorescence Emission Intensity: 60.8 | Peak emission wavelength λmax em(nm): 527.5 nm | Relative fluorescence Emission Intensitynorm: 0.26
Compound: COc1cc(OC)cc(-c2nc3ccccc3c3cc4ccccn4c23)c1 [compound 7]

quantum yield (Φ) (DW, standard Rhodamine 6G): 0.073 | quantum yield (Φ) (EtOH, standard Coumarin 153): 0.318 | Fluorescence Emission Intensity: 98.9 | Peak emission wavelength λmax em(nm): 474 nm | Relative fluorescence Emission Intensitynorm: 0.42
Compound: CCOC(=O)c1c2c3ccccc3nc(-c3cccc(Cl)c3)c2n2ccccc12 [compound 27]

λex(nm) (Table 7): 422 nm
Compound: CCN(CC)C(=O)c1ccc(-c2ccn3c(c2)cc2c4ccccc4nc(-c4ccc(OC)cc4)c23)cc1 [IQ-B36, N,N-diethyl-4-(6-(4-methoxyphenyl)indolizino[3,2-c]quinolin-10-yl)benzamide]

fluorescence (intensity, in words): high fluorescence in DMSO | λex(nm) (Table 7): 434 nm
Compound: COc1ccc(-c2nc3ccccc3c3cc4cc(-c5ccc(C=O)cc5)ccn4c23)cc1 [IQ-B23, 4-(6-(4-methoxyphenyl)indolizino[3,2-c]quinolin-10-yl)benzaldehyde]

quantum yield (Φ) (DW, standard Rhodamine 6G): 0.065 | quantum yield (Φ) (EtOH, standard Coumarin 153): 0.106 | Fluorescence Emission Intensity: 82.4 | Peak emission wavelength λmax em(nm): 518 nm | Relative fluorescence Emission Intensitynorm: 0.35
Compound: Cc1ccc(-c2nc3ccccc3c3cc4ccc(Br)cn4c23)cc1 [compound 23]

solvent-dependent (environment-sensitive) tendency of the emission: solvatochromic effect
Compound: CCOC(=O)c1c2c3ccccc3nc(-c3cccc(F)c3)c2n2ccccc12 [IQ 28, ethyl 6-(3-fluorophenyl)indolizino[3,2-c]quinoline-12-carboxylate]

Maximum absorption wavelength λmax abs(nm): 407 nm | quantum yield (Φ) (DW, standard Rhodamine 6G): 0.006 | quantum yield (Φ) (EtOH, standard Coumarin 153): 0.111 | Fluorescence Emission Intensity: 7.5 | Peak emission wavelength λmax em(nm): 536 nm | Relative fluorescence Emission Intensitynorm: 0.03
Compound: Clc1ccc(-c2nc3ccccc3c3cc4ccccn4c23)s1 [compound 11]

λex(nm) (Table 6): 437 nm
Compound: COc1ccc(-c2nc3ccccc3c3c(-c4cn(CCOCCOCCOCCNC(=O)CCCCCC5[C@H]6NC(=O)N[C@H]6C[S+]5[O-])nn4)c4ccccn4c23)cc1 (stereo partly drawn) [IQ 6-T-B, N-(2-(2-(2-(2-(4-(6-(4-methoxyphenyl)indolizino[3,2-c]quinolin-12-yl)-1H-1,2,3-triazol-1-yl)ethoxy)ethoxy)ethoxy)ethyl)-6-((3aS,6aR)-5-oxido-2-oxohexahydro-1H-thieno[3,4-d]imidazol-4-yl)hexanamide]

λex(nm) (Table 6): 399 nm
Compound: Cc1cccn2c1cc1c3ccccc3nc(-c3cccs3)c12 [compound 52]

λex(nm) (Table 6): 402 nm and 422 nm | peak emission (λmax) (aqueous solution (H2O)): 543 nm
Compound: c1cc(-c2nc3ccccc3c3cc4ccccn4c23)nc(-c2nc3ccccc3c3cc4ccccn4c23)c1 [IQ 5-D, 2,6-bis(indolizino[3,2-c]quinolin-6-yl)pyridine]

λex(nm) (Table 6): 403 nm
Compound: CCOC(=O)c1c2c3ccccc3nc(-c3ccc(OC)cc3)c2n2ccccc12 [compound 51]

Absorption coefficient (cm^−1M^−1): 10580 cm^−1M^−1 | Absorption wavelength λex(nm): 369 nm | Emission wavelength λem(nm): 481 nm | λem (nm) (DMF): 450 nm | λem (nm) (DMSO): 452.5 nm | λem (nm) (EtOH): 444 nm | λem (nm) (EtOH:CHCl3 = 1:5): 447.5 nm | λem (nm) (H2O): 478.5 nm | Fluorescence Emission Intensity: 210.7 | Peak emission wavelength λmax em(nm): 480.5 nm | λem (nm) (MC): 448 nm | Fluorescence quantum yield (Φ): 0.084 | Relative fluorescence Emission Intensitynorm: 0.90
Compound: CCOC(=O)c1c2c3ccccc3nc(-c3ccc(OC)c(OC)c3)c2n2ccccc12 [compound 30]

quantum yield (Φ) (DW, standard Rhodamine 6G): 0.014 | quantum yield (Φ) (EtOH, standard Coumarin 153): 0.672 | Fluorescence Emission Intensity: 11.7 | Peak emission wavelength λmax em(nm): 535 nm | Relative fluorescence Emission Intensitynorm: 0.05
Compound: COc1cc(OC)cc(-c2nc3ccccc3c3cc4c(C)cccn4c23)c1 [compound 16]

λex(nm) (Table 7): 427 nm
Compound: COc1ccc(-c2nc3ccccc3c3cc4cc(-c5ccc(C(=O)Nc6ccccc6)cc5)ccn4c23)cc1 [IQ-B35, 4-(6-(4-methoxyphenyl)indolizino[3,2-c]quinolin-10-yl)-N-phenylbenzamide]

quantum yield (Φ) (DW, standard Rhodamine 6G): 0.367 | quantum yield (Φ) (EtOH, standard Coumarin 153): 0.468 | Fluorescence Emission Intensity: 143.5 | Peak emission wavelength λmax em(nm): 493 nm | Relative fluorescence Emission Intensitynorm: 0.62
Compound: COC(=O)c1c2c3ccccc3nc(-c3cccc4ccccc34)c2n2ccccc12 [compound 20]

quantum yield (Φ) (DW, standard Rhodamine 6G): 0.014 | quantum yield (Φ) (EtOH, standard Coumarin 153): 0.275
Compound: COC(=O)c1c2c3ccccc3nc(-c3ccccn3)c2n2ccccc12 [compound 43]

Absorption coefficient (cm^−1M^−1): 10780 cm^−1M^−1 | Absorption wavelength λex(nm): 369 nm | Emission wavelength λem(nm): 476 nm | λem (nm) (DMF): 470 nm | λem (nm) (DMSO): 472.5 nm | λem (nm) (EtOH): 449.5 nm | λem (nm) (EtOH:CHCl3 = 1:5): 450 nm | λem (nm) (H2O): 476 nm | Fluorescence Emission Intensity: 211.7 | Peak emission wavelength λmax em(nm): 476 nm | λem (nm) (MC): 451.5 nm | Fluorescence quantum yield (Φ): 0.061 | Relative fluorescence Emission Intensitynorm: 0.91
Compound: CCOC(=O)c1c2c3ccccc3nc(-c3cccc(F)c3)c2n2ccccc12 [compound 28]

λex(nm) (Table 7): 431 nm
Compound: COc1ccc(-c2nc3ccccc3c3cc4cc(-c5ccc(C#N)cc5)ccn4c23)cc1 [IQ-B43, 4-(6-(4-methoxyphenyl)indolizino[3,2-c]quinolin-10-yl)benzonitrile]

λex(nm) (Table 6): 413 nm
Compound: C#Cc1c2c3ccccc3nc(-c3ccc(OC)cc3)c2n2ccccc12 [compound 55]

λex(nm) (Table 6): 401 nm
Compound: CCOC(=O)c1c2c3ccccc3nc(-c3ccc(OC)c(CN4CCOCC4)c3)c2n2ccccc12 [compound 57]

quantum yield (Φ) (DW, standard Rhodamine 6G): 0.000 | quantum yield (Φ) (EtOH, standard Coumarin 153): 0.000 | Relative fluorescence Emission Intensitynorm: 0.00
Compound: O=[N+]([O-])c1ccc(-c2nc3ccccc3c3cc4ccccn4c23)cc1 [compound 2]

fluorescence (intensity, in words): did not induce fluorescence
Compound: CCOC(=O)c1c2c3ccccc3nc(-c3ccc([N+](=O)[O-])cc3)c2n2ccccc12 [IQ 26, ethyl 6-(4-nitrophenyl)indolizino[3,2-c]quinoline-12-carboxylate]

quantum yield (Φ) (DW, standard Rhodamine 6G): 0.073 | quantum yield (Φ) (EtOH, standard Coumarin 153): 0.365
Compound: Cc1ccc2cc3c4ccccc4nc(-c4cccc5ccccc45)c3n2c1 [compound 35]

quantum yield (Φ) (DW, standard Rhodamine 6G): 0.024 | quantum yield (Φ) (EtOH, standard Coumarin 153): 0.654 | Fluorescence Emission Intensity: 9.4 | Peak emission wavelength λmax em(nm): 535.5 nm | Relative fluorescence Emission Intensitynorm: 0.04
Compound: Cc1ccc(-c2nc3ccccc3c3cc4c(C)cccn4c23)cc1 [compound 15]

quantum yield (Φ) (DW, standard Rhodamine 6G): 0.050 | quantum yield (Φ) (EtOH, standard Coumarin 153): 0.597
Compound: COc1ccc(-c2nc3ccccc3c3c(-c4ccc(C(F)(F)F)cc4)c4ccccn4c23)cc1 [compound 47]

quantum yield (Φ) (DW, standard Rhodamine 6G): 0.070 | quantum yield (Φ) (EtOH, standard Coumarin 153): 0.440 | Fluorescence Emission Intensity: 89.5 | Peak emission wavelength λmax em(nm): 512 nm | Relative fluorescence Emission Intensitynorm: 0.38
Compound: COc1ccc(-c2nc3ccccc3c3cc4ccc(Br)cn4c23)cc1 [compound 22]

λex(nm) (Table 7): 436 nm
Compound: COc1ccc(-c2nc3ccccc3c3cc4cc(/C=C/C#N)ccn4c23)cc1 [IQ-B44, (E)-3-(6-(4-methoxyphenyl)indolizino[3,2-c]quinolin-10-yl)acrylonitrile]

solvent-dependent (environment-sensitive) tendency of the emission: solvatochromic effect
Compound: CCOC(=O)c1c2c3ccccc3nc(-c3ccc(OC)c(OC)c3)c2n2ccccc12 [IQ 30, ethyl 6-(3,4-dimethoxyphenyl)indolizino[3,2-c]quinoline-12-carboxylate]

λex(nm) (Table 6): 458 nm
Compound: COc1ccc(-c2c3c(cc4ccccn43)c3ccccc3[n+]2C)cc1 [IQ 6-S1-Me, 6-(4-methoxyphenyl)-5-methylindolizino[3,2-c]quinolin-5-ium methyl sulfate]
solvent-dependent (environment-sensitive) tendency of the emission: hardly showed an environment-sensitive optical characteristic

λex(nm) (Table 7): 415 nm
Compound: C(=C\c1nc2ccccc2c2cc3ccccn3c12)/c1ccccc1 [IQ-B4, (E)-6-styrylindolizino[3,2-c]quinoline]

quantum yield (Φ) (DW, standard Rhodamine 6G): 0.014 | quantum yield (Φ) (EtOH, standard Coumarin 153): 0.037
Compound: COc1ccc(-c2nc3ccccc3c3c(I)c4ccccn4c23)cc1 [compound 50]

quantum yield (Φ) (DW, standard Rhodamine 6G): 0.105 | quantum yield (Φ) (EtOH, standard Coumarin 153): 0.050
Compound: COc1ccc(-c2nc3ccccc3c3c(-c4ccc(C(C)=O)cc4)c4ccccn4c23)cc1 [compound 48]

Compound: Oc1ccc(-c2nc3ccccc3c3cc4ccccn4c23)cc1 [IQ-B2, 4-(indolizino[3,2-c]quinolin-6-yl)phenol]
solvent-dependent (environment-sensitive) tendency of the emission: high solvent-dependent (i.e., environment-sensitive) tendency

λex(nm) (Table 7): 427 nm | maximum wavelength of fluorescence (Tris buffer (pH 7.5)): 531 nm
Compound: COc1ccc(-c2nc3ccccc3c3cc4cc(C=O)ccn4c23)cc1 [IQ-B11, 6-(4-methoxyphenyl)indolizino[3,2-c]quinoline-10-carbaldehyde]

λex(nm) (Table 7): 423 nm
Compound: COc1ccc(-c2nc3ccccc3c3cc4cc(-c5ccc6ccccc6c5)ccn4c23)cc1 [IQ-B39, 6-(4-methoxyphenyl)-10-(naphthalen-2-yl)indolizino[3,2-c]quinoline]

Maximum absorption wavelength λmax abs(nm): 395 nm | quantum yield (Φ) (DW, standard Rhodamine 6G): 0.131 | quantum yield (Φ) (EtOH, standard Coumarin 153): 0.623 | Fluorescence Emission Intensity: 11.8 | Peak emission wavelength λmax em(nm): 531.5 nm | Relative fluorescence Emission Intensitynorm: 0.05
Compound: Cc1cccn2c1cc1c3ccccc3nc(-c3ccc(Br)cc3)c12 [compound 12]
